From patent publication US12370192B2, “Azole-fused pyridazin-3(2H)-one derivatives” (TAKEDA PHARMACEUTICAL COMPANY LIMITED, priority 2019, dated 2025)

Legend:
human GPR139 receptor [1] = target: T1, human GPR139 receptor (Homo sapiens, UniProt Q6DWJ6); assay: GPR139 Competition Binding (membrane-based, tritium-labeled ligand); details: T-REx-CHO membranes with human GPR139; 6.5 nM tritium-labeled ligand; 11-point curve, 30 μM maximum concentration; read-out: GPR139 Binding Affinity (pKi) (converted)
T1 construct: expressed in transfected cells; host or cells: T-REx-CHO (Thermo Fisher Scientific), doxycycline-induced
T1 sequence (Q6DWJ6 1-353): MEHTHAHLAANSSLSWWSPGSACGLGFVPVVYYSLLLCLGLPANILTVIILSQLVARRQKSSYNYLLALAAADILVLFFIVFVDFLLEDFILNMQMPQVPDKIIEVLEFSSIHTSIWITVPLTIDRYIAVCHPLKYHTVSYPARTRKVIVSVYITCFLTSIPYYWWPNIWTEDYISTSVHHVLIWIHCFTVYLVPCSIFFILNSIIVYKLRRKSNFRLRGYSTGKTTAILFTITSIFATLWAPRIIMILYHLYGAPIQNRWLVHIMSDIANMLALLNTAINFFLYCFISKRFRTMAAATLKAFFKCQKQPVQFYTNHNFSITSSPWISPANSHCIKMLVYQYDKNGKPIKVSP
In short: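 Membranes came from doxycycline-induced T-REx-CHO cells expressing human GPR139. They were incubated 20 min at room temperature with 6.5 nM tritiated ligand and compound (11 points, top 30 μM) in HEPES pH 7.3 buffer with MgCl2/CaCl2. Filter-bound counts gave Ki by four-parameter fit, reported as pKi.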

human GPR139 receptor [2] = target: T1, human GPR139 receptor; assay: Measurement of GPR139 Activation Via Calcium Signaling (FLIPR, T-REx-CHO cells); type: cell-based; details: T-REx-CHO cells stably expressing human GPR139, 11-point dose response, 10 μM maximum concentration, read-out: GPR139 Potency (pEC50) (converted)
In short: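 T-REx-CHO cells stably carrying human GPR139 under tetracycline control, induced with 2 μg/mL doxycycline for 17 h at 37 °C, loaded 40 min with Calcium 5 dye plus probenecid in HBSS/HEPES pH 7.4. Agonist added as 11-point series (10 μM top); fluorescence read 1 min; pEC50 from four-parameter fit.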

SMILES	Ki (human GPR139 receptor [1]) [nM]	EC50 (human GPR139 receptor [2]) [nM]
Cc1ccc([C@H](C)NC(=O)Cn2nc(C)c3c(c(C)nn3C(C)C)c2=O)c(F)c1 [Example 54, (S)—N-(1-(2-fluoro-4-methylphenyl)ethyl)-2-(1-isopropyl-3,7-dimethyl-4-oxo-1,4-dihydro-5H-pyrazolo[3,4-d]pyridazin-5-yl)acetamide]	87.1	107
Cc1ccc([C@H](C)NC(=O)Cn2nc(C)c3c(c(C)nn3C(C)C)c2=O)cc1 [Example 55, (S)-2-(1-isopropyl-3,7-dimethyl-4-oxo-1,4-dihydro-5H-pyrazolo[3,4-d]pyridazin-5-yl)-N-(1-(p-tolyl)ethyl)acetamide]	380	83.2
Cc1nn(C(C)C)c2c(C)nn(CC(=O)N[C@@H](C)c3ccc(C(F)(F)F)cc3)c(=O)c12 [Example 56, (S)-2-(1-isopropyl-3,7-dimethyl-4-oxo-1,4-dihydro-5H-pyrazolo[3,4-d]pyridazin-5-yl)-N-(1-(4-(trifluoromethyl)phenyl)ethyl)acetamide]	479	214
Cc1nn(C2CC2)c2c(=O)n(CC(=O)N[C@@H](C)c3ccc(C(F)(F)F)cn3)ncc12 [Example 58, (S)-2-(1-cyclopropyl-3-methyl-7-oxo-1,7-dihydro-6H-pyrazolo[3,4-d]pyridazin-6-yl)-N-(1-(5-(trifluoromethyl)pyridin-2-yl)ethyl)acetamide]	1350	74.1
Cc1nn(CC(=O)NC(C)c2ccc3c(c2)CCCO3)c(=O)c2c1c(C)nn2C1CC1 (stereo not shown) [Example 61, N-(1-(chroman-6-yl)ethyl)-2-(1-cyclopropyl-3,4-dimethyl-7-oxo-1,7-dihydro-6H-pyrazolo[3,4-d]pyridazin-6-yl)acetamide]	41.7	141
Cc1cc(Cl)ccc1[C@H](C)NC(=O)Cn1ncc2c(c(C)cn2C2CC2)c1=O [Example 63, (S)—N-(1-(4-chloro-2-methylphenyl)ethyl)-2-(1-cyclopropyl-3-methyl-4-oxo-1,4-dihydro-5H-pyrrolo[2,3-d]pyridazin-5-yl)acetamide]	2	85.1
Cc1cc(C)c([C@H](C)NC(=O)Cn2ncc3c(c(C)cn3C3CC3)c2=O)c(C)c1 [Example 64, (S)-2-(1-cyclopropyl-3-methyl-4-oxo-1,4-dihydro-5H-pyrrolo[2,3-d]pyridazin-5-yl)-N-(1-mesitylethyl)acetamide]	2.09	120
Cc1cn(C2CC2)c2cnn(CC(=O)N[C@@H](C)c3ccc(F)cc3Cl)c(=O)c12 [Example 66, (S)—N-(1-(2-chloro-4-fluorophenyl)ethyl)-2-(1-cyclopropyl-3-methyl-4-oxo-1,4-dihydro-5H-pyrrolo[2,3-d]pyridazin-5-yl)acetamide]	0.794	79.4
Cc1cc(C)c([C@H](C)NC(=O)Cn2nc(C)c3c(C)nn(C4CC4)c3c2=O)c(C)c1 [Example 70, (S)-2-(1-cyclopropyl-3,4-dimethyl-7-oxo-1,7-dihydro-6H-pyrazolo[3,4-d]pyridazin-6-yl)-N-(1-mesitylethyl)acetamide]	0.759	178
Cc1ccc([C@H](C)NC(=O)Cn2nc(C)c3c(cnn3C3CC3)c2=O)cc1 [Example 80, (S)-2-(1-cyclopropyl-7-methyl-4-oxo-1,4-dihydro-5H-pyrazolo[3,4-d]pyridazin-5-yl)-N-(1-(p-tolyl)ethyl)acetamide]	1660	251
Cc1ccc([C@H](C)NC(=O)Cn2nc(C)c3c(cnn3C)c2=O)c(F)c1 [Example 82]	550	41.7

More lines, now with the values ahead:

Ki (human GPR139 receptor [1]) [nM]	EC50 (human GPR139 receptor [2]) [nM]	SMILES
3090	132	COc1ccc([C@H](C)NC(=O)Cn2nc(C)c3c(c(C)nn3C(C)C)c2=O)cc1 [Example 57, (S)-2-(1-isopropyl-3,7-dimethyl-4-oxo-1,4-dihydro-5H-pyrazolo[3,4-d]pyridazin-5-yl)-N-(1-(4-methoxyphenyl)ethyl)acetamide]
741	347	Cc1nn(CC(=O)N[C@@H](C)c2ccc(C(F)(F)F)cn2)c(=O)c2c1c(C)nn2C(C)C [Example 59, (S)-2-(1-isopropyl-3,4-dimethyl-7-oxo-1,7-dihydro-6H-pyrazolo[3,4-d]pyridazin-6-yl)-N-(1-(5-(trifluoromethyl)pyridin-2-yl)ethyl)acetamide]
30200	214	Cc1nn(C)c2c(=O)n(CC(=O)N[C@@H](C)c3ccc(C(F)(F)F)cn3)ncc12 [Example 60, (S)-2-(1,3-dimethyl-7-oxo-1,7-dihydro-6H-pyrazolo[3,4-d]pyridazin-6-yl)-N-(1-(5-(trifluoromethyl)pyridin-2-yl)ethyl)acetamide]
2.14	25.1	Cc1ccc([C@H](C)NC(=O)Cn2ncc3c(c(C)cn3C3CC3)c2=O)cc1F [Example 62, (S)-2-(1-cyclopropyl-3-methyl-4-oxo-1,4-dihydro-5H-pyrrolo[2,3-d]pyridazin-5-yl)-N-(1-(3-fluoro-4-methylphenyl)ethyl)acetamide]
3.72	67.6	Cc1ccc([C@H](C)NC(=O)Cn2ncc3c(c(C)cn3C3CC3)c2=O)c(C)c1 [Example 65, (S)-2-(1-cyclopropyl-3-methyl-4-oxo-1,4-dihydro-5H-pyrrolo[2,3-d]pyridazin-5-yl)-N-(1-(2,4-dimethylphenyl)ethyl)acetamide]
3.89	85.1	COc1cc(Cl)ccc1C[C@H](C)NC(=O)Cn1ncc2c(c(C)cn2C2CC2)c1=O [Example 67, (S)—N-(1-(4-chloro-2-methoxyphenyl)propan-2-yl)-2-(1-cyclopropyl-3-methyl-4-oxo-1,4-dihydro-5H-pyrrolo[2,3-d]pyridazin-5-yl)acetamide]
0.347	69.2	Cc1ccc([C@H](C)NC(=O)Cn2nc(C)c3c(C)nn(C4CC4)c3c2=O)cc1F [Example 68, (S)-2-(1-cyclopropyl-3,4-dimethyl-7-oxo-1,7-dihydro-6H-pyrazolo[3,4-d]pyridazin-6-yl)-N-(1-(3-fluoro-4-methylphenyl)ethyl)acetamide]
0.447	69.2	Cc1ccc([C@H](C)NC(=O)Cn2nc(C)c3c(C)nn(C4CC4)c3c2=O)c(F)c1 [Example 69, (S)-2-(1-cyclopropyl-3,4-dimethyl-7-oxo-1,7-dihydro-6H-pyrazolo[3,4-d]pyridazin-6-yl)-N-(1-(2-fluoro-4-methylphenyl)ethyl)acetamide]
0.398	93.3	Cc1nn(CC(=O)N[C@@H](C)c2ccc(F)cc2Cl)c(=O)c2c1c(C)nn2C1CC1 [Example 71, (S)—N-(1-(2-chloro-4-fluorophenyl)ethyl)-2-(1-cyclopropyl-3,4-dimethyl-7-oxo-1,7-dihydro-6H-pyrazolo[3,4-d]pyridazin-6-yl)acetamide]
1910	55	Cc1nn(CC(=O)N[C@@H](C)c2ccc(C(F)(F)F)cc2)c(=O)c2cnn(C)c12 [Example 72, (S)-2-(1,7-dimethyl-4-oxo-1,4-dihydro-5H-pyrazolo[3,4-d]pyridazin-5-yl)-N-(1-(4-(trifluoromethyl)phenyl)ethyl)acetamide]
3470	63.1	Cc1nn(CC(=O)N[C@@H](C)c2ccc(OC(F)(F)F)cc2)c(=O)c2cnn(C)c12 [Example 73, (S)-2-(1,7-dimethyl-4-oxo-1,4-dihydro-5H-pyrazolo[3,4-d]pyridazin-5-yl)-N-(1-(4-(trifluoromethoxy)phenyl)ethyl)acetamide]
2450	93.3	Cc1ccc([C@H](C)NC(=O)Cn2nc(C)c3c(cnn3C)c2=O)cc1 [Example 74, (S)-2-(1,7-dimethyl-4-oxo-1,4-dihydro-5H-pyrazolo[3,4-d]pyridazin-5-yl)-N-(1-(p-tolyl)ethyl)acetamide]
2340	617	Cc1nn(CC(=O)N[C@@H](C)c2ccc(C(F)(F)F)cc2)c(=O)c2cnn(C(C)C)c12 [Example 75, (S)-2-(1-isopropyl-7-methyl-4-oxo-1,4-dihydro-5H-pyrazolo[3,4-d]pyridazin-5-yl)-N-(1-(4-(trifluoromethyl)phenyl)ethyl)acetamide]
331	145	Cc1ccc([C@H](C)NC(=O)Cn2nc(C)c3c(cnn3C3CC3)c2=O)c(F)c1 [Example 81, (S)-2-(1-cyclopropyl-7-methyl-4-oxo-1,4-dihydro-5H-pyrazolo[3,4-d]pyridazin-5-yl)-N-(1-(2-fluoro-4-methylphenyl)ethyl)acetamide]
55	741	Cc1nn(C2CC2)c2c(=O)n(CC(=O)N3CCCC3c3ccc(Cl)cc3)ncc12 (stereo not shown) [Example 85, 6-(2-(2-(4-chlorophenyl)pyrrolidin-1-yl)-2-oxoethyl)-1-cyclopropyl-3-methyl-1,6-dihydro-7H-pyrazolo[3,4-d]pyridazin-7-one]
